Assay results published in patent publication US12115373B2, “Methods for reducing the risk of strokes by pharmacotherapy to reduce the number and duration of atrial fibrillations” (Xyra, LLC, priority 2022, dated 2024).

Columns and labels:
[1] = test system: patients with either paroxysmal or persistent AFib; assay: Clinical trial: episodes of AFib greater than 6 minutes (0.1 hour), pacemaker monitoring (Example 6); type: in vivo; conditions: for Episodes of AFib > 0.1 hrs: Duration, percent of Off Drug (baseline) / Episodes of AFib > 0.1 hrs: Number, percent of Off Drug (baseline): 2 weeks (baseline 4 weeks); for Episodes of AFib > 0.1 hrs: Number / Episodes of AFib > 0.1 hrs: Duration: all tested patients, 2 weeks; for Episodes of AFib > 0.1 hrs: Duration: cumulative; for Episodes of AFib > 0.1 hrs: Fraction of hours: hours in AFib / hours monitored
Procedure: In this example, the patients' heart rhythm was continuously monitored over a twelve-week period with a pacemaker. The patients were treated with different doses (2 weeks each) of budiodarone. In addition, during this trial, the patients were under continuous monitoring and clinician supervision.
The “Number” indicates the number of AFib episodes greater than 6 minutes for all tested patients over the trial period (4 weeks for based line, 2 weeks experimental). The “Duration” in hours indicates the cumulative duration in hours over the trial period that the tested patients were measured in episodes of AFib greater than 6 minutes.
Table 8 provides a summary of the fraction of time and the number of hours per week that the patients were in episodes of AFib greater than 6 minutes in duration, on average. The percent time in AFib was reduced by 90% for doses of budiodarone at 600 mg bid and 800 mg bid.

[2] = test system: patients with either paroxysmal or persistent AFib; assay: Clinical trial: episodes of longer duration AFib (>24 hrs), pacemaker monitoring (Example 3); type: in vivo; conditions: 2-week period; for Episodes of AFib > 24 hrs: Duration / Episodes of AFib > 24 hrs: Number: 6 patients
Procedure: (§1) This example is a clinical trial evaluation of budiodarone in treating 6 patients with either paroxysmal or persistent AFib who previously evidenced episodes of long duration AFib (greater than 24 hrs). In this example, the patients' heart rhythms were continuously monitored over a twelve-week period with a pacemaker (surgically invasive procedure) and were treated with different doses (2 weeks each) of budiodarone. In addition, during this trial, the patients were under continuous monitoring and constant clinician supervision.
The purpose of this example is to establish whether budiodarone treatment can reduce longer duration AFib (AFib episodes lasting more than 24 hours) in a clinical study setting and using a pacemaker to evaluate heart rhythm.
“Number” indicates the number of longer duration episodes of AFib (i.e., having a duration of greater than 24 hours). “Duration” indicates the amount of time during the 2-week period spent in the longer duration indicated in hours and a percentage relative to the baseline measurement. As per the above results, 200 mg b.i.d. was sufficient to treat all patients in the study by eliminating the number of episodes of AFib lasting over 24 hours. In this case, dose escalation was not required to improve patient efficacy as the 200 mg bid doses of budiodarone were sufficient to eliminate these long duration episodes of AFib.

[3] = in vivo; cited from earlier work
[4] = test system: patients with either paroxysmal or persistent AFib; assay: Clinical trial: episodes of long duration AFib (>5 hrs), pacemaker monitoring (Example 4); type: in vivo; conditions: for Episodes of AFib > 5 hrs: Duration, percentage relative to the baseline / Episodes of AFib > 5 hrs: Duration / Episodes of AFib > 5 hrs: Number: 2 week period; for Episodes of AFib > 5 hrs: Duration / Episodes of AFib > 5 hrs: Number: 6 patients
Procedure: as §1, with “5” for “24”
The purpose of this example is to establish whether budiodarone reduces long duration AFib lasting more than 5 hours in a clinical study setting using a pacemaker to evaluate the heart rhythm.
“Number” indicates the number of long duration episodes of AFib having a duration of greater than 5 hours. “Duration” indicates the amount of time during the 2 week period spent in the greater than 5 hour duration AFib, indicated in hours and a percentage relative to the baseline measurement. […] Finally, the 800 mg bid performed best. In all doses, the reduction in episodes of AFib of greater than 5 hours were above 85% and the corresponding reduction in AFib burden was above 90%.

patients = assay: Clinical trial: longest duration episode of AFib at each dose, per subject (Example 7); type: in vivo; conditions: for longest duration episode of AFib / longest duration episode of AFib, Total: 2 Weeks; for longest duration episode of AFib, Total: Total of subjects
Text: This example is a clinical trial evaluation of 6 patients treated with different doses of budiodarone each for a two-week period to determine the longest duration episode of AFib experienced at each dose. In this example, the patients' heart rhythms were continuously monitored over a twelve-week period with a pacemaker.

[5] = Serum half-life of budiodarone; type: in vivo; conditions: human

- half-life ([5]; after administration): 6 to 7 h
- time to reach steady state ([5]; read-out: steady state (about 5x the serum half-life)): 1800 to 2100 min
Compound: CC[C@H](C)OC(=O)Cc1oc2ccccc2c1C(=O)c1cc(I)c(OCCN(CC)CC)c(I)c1 [budiodarone, (S)-sec-butyl2-(3-(4-(2-(diethylamino)ethoxy)-3,5-diiodobenzoyl)benzofuran-2-yl)acetate]
- Episodes of AFib > 0.1 hrs: Duration in hrs/week (average per patient) ([1]; 200 mg bid): 5.9 hrs/week
- Episodes of AFib > 0.1 hrs: Fraction of hours (percent), percent time in AFib ([1]; 200 mg bid): (3.5%)
- Episodes of AFib > 0.1 hrs: Duration, percent of Off Drug (baseline) ([1]; 200 mg bid): 11%
- Episodes of AFib > 0.1 hrs: Number, percent of Off Drug (baseline) ([1]; 200 mg bid): 52 (52%)
- Episodes of AFib > 0.1 hrs: Number ([1]; 200 mg bid): 52 (52%)
- Episodes of AFib > 0.1 hrs: Duration ([1]; 200 mg bid): 71 h
- Episodes of AFib > 0.1 hrs: Fraction of hours ([1]; 200 mg bid): 71/2016
- drop in percent time in AFib ([1]; 200 mg twice a day): 76.7%
- Episodes of AFib > 0.1 hrs: Duration in hrs/week (average per patient) ([1]; 400 mg bid): 5 hrs/week
- Episodes of AFib > 0.1 hrs: Fraction of hours (percent), percent time in AFib ([1]; 400 mg bid): (3.0%)
- Episodes of AFib > 0.1 hrs: Duration, percent of Off Drug (baseline) ([1]; 400 mg bid): 10%
- Episodes of AFib > 0.1 hrs: Number, percent of Off Drug (baseline) ([1]; 400 mg bid): 28 (28%)
- Episodes of AFib > 0.1 hrs: Number ([1]; 400 mg bid): 28 (28%)
- Episodes of AFib > 0.1 hrs: Duration ([1]; 400 mg bid): 61 h
- Episodes of AFib > 0.1 hrs: Fraction of hours ([1]; 400 mg bid): 61/2016
- Episodes of AFib > 0.1 hrs: Duration in hrs/week (average per patient) ([1]; 600 mg bid): 2.5 hrs/week
- Episodes of AFib > 0.1 hrs: Fraction of hours (percent), percent time in AFib ([1]; 600 mg bid): (1.5%)
- reduction of percent time in AFib ([1]; 600 mg bid and 800 mg bid (Table 8)): 90%
- reduction of the number of episodes of AFib longer than 6 minutes ([1]; 600 mg bid or 800 mg bid): more than 80%
- Episodes of AFib > 0.1 hrs: Duration, percent of Off Drug (baseline) ([1]; 600 mg bid): 4.8%
- Episodes of AFib > 0.1 hrs: Number, percent of Off Drug (baseline) ([1]; 600 mg bid): 16 (16%)
- Episodes of AFib > 0.1 hrs: Number ([1]; 600 mg bid): 16 (16%)
- Episodes of AFib > 0.1 hrs: Duration ([1]; 600 mg bid): 30 h
- Episodes of AFib > 0.1 hrs: Fraction of hours ([1]; 600 mg bid): 30/2016
- drop in percent time in AFib ([1]; 600 mg twice a day): 90%
- Episodes of AFib > 0.1 hrs: Duration in hrs/week (average per patient) ([1]; 800 mg bid): 1.3 hrs/week
- Episodes of AFib > 0.1 hrs: Fraction of hours (percent), percent time in AFib ([1]; 800 mg bid): (0.8%)
- Episodes of AFib > 0.1 hrs: Duration, percent of Off Drug (baseline) ([1]; 800 mg bid): 2.5%
- Episodes of AFib > 0.1 hrs: Number, percent of Off Drug (baseline) ([1]; 800 mg bid): 15 (15%)
- Episodes of AFib > 0.1 hrs: Number ([1]; 800 mg bid): 15 (15%)
- Episodes of AFib > 0.1 hrs: Duration ([1]; 800 mg bid): 16 h
- Episodes of AFib > 0.1 hrs: Fraction of hours ([1]; 800 mg bid): 16/2016
- drop in percent time in AFib ([1]; 800 mg twice a day): 94.8%
- Episodes of AFib > 24 hrs: Duration, percentage relative to the baseline ([2]; 200 mg bid): (0%)
- Episodes of AFib > 24 hrs: Duration ([2]; 200 mg bid): 0 h
- Episodes of AFib > 24 hrs: Number ([2]; 200 mg bid): 0
- Episodes of AFib > 24 hrs: Duration, percentage relative to the baseline ([2]; 400 mg bid): (0%)
- Episodes of AFib > 24 hrs: Duration ([2]; 400 mg bid): 0 h
- Episodes of AFib > 24 hrs: Number ([2]; 400 mg bid): 0
- Episodes of AFib > 24 hrs: Duration, percentage relative to the baseline ([2]; 600 mg bid): (0%)
- Episodes of AFib > 24 hrs: Duration ([2]; 600 mg bid): 0 h
- Episodes of AFib > 24 hrs: Number ([2]; 600 mg bid): 0
- Episodes of AFib > 24 hrs: Duration, percentage relative to the baseline ([2]; 800 mg bid): (0%)
- Episodes of AFib > 24 hrs: Duration ([2]; 800 mg bid): 0 h
- Episodes of AFib > 24 hrs: Number ([2]; 800 mg bid): 0
- increase in the QT interval [3]: without a significant increase in the QT interval
- Episodes of AFib > 5 hrs: Duration, percentage relative to the baseline ([4]; 200 mg bid): (3.5%)
- Episodes of AFib > 5 hrs: Duration ([4]; 200 mg bid): 17 h
- Episodes of AFib > 5 hrs: Number ([4]; 200 mg bid): 3
- Episodes of AFib > 5 hrs: Duration, percentage relative to the baseline ([4]; 400 mg bid): (7.7%)
- Episodes of AFib > 5 hrs: Duration ([4]; 400 mg bid): 38 h
- Episodes of AFib > 5 hrs: Number ([4]; 400 mg bid): 4
- Episodes of AFib > 5 hrs: Duration, percentage relative to the baseline ([4]; 600 mg bid): (2.8%)
- Episodes of AFib > 5 hrs: Duration ([4]; 600 mg bid): 14 h
- Episodes of AFib > 5 hrs: Number ([4]; 600 mg bid): 2
- Episodes of AFib > 5 hrs: Duration, percentage relative to the baseline ([4]; 800 mg bid): (1%)
- Episodes of AFib > 5 hrs: Duration ([4]; 800 mg bid): 5 h
- Episodes of AFib > 5 hrs: Number ([4]; 800 mg bid): 1
- corresponding reduction in AFib burden (episodes > 5 hours) ([4]; in all doses (200-800 mg bid)): above 90%
- reduction in episodes of AFib of greater than 5 hours ([4]; in all doses (200-800 mg bid)): above 85%
- dose required to eliminate all episodes of long duration AFib (>5 hrs) (patients; Subject 1): 800 mg bid
- longest duration episode of AFib (patients; Subject 1, 200 mg bid): 5 h
- longest duration episode of AFib (patients; Subject 1, 400 mg bid): 8 h
- longest duration episode of AFib (patients; Subject 1, 600 mg bid): 7 h
- longest duration episode of AFib (patients; Subject 1, 800 mg bid): 3 h
- longest duration episode of AFib (patients; Subject 2, 200 mg bid): 6 h
- longest duration episode of AFib (patients; Subject 2, 400 mg bid): 13 h
- longest duration episode of AFib (patients; Subject 2, 600 mg bid): 0 h
- longest duration episode of AFib (patients; Subject 2, 800 mg bid): 5 h
- longest duration episode of AFib (patients; Subject 3, 200 mg bid): 7 h
- longest duration episode of AFib (patients; Subject 4, 200 mg bid): 0 h
- longest duration episode of AFib (patients; Subject 4, 400 mg bid): 2 h
- longest duration episode of AFib (patients; Subject 4, 600 mg bid): 2 h
- longest duration episode of AFib (patients; Subject 4, 800 mg bid): 1 h
- longest duration episode of AFib (patients; Subject 5, 200 mg bid): 3 h
- longest duration episode of AFib (patients; Subject 5, 400 mg bid): 2 h
- longest duration episode of AFib (patients; Subject 5, 600 mg bid): 0.8 h
- longest duration episode of AFib (patients; Subject 5, 800 mg bid): 1.6 h
- dose required to eliminate all episodes (patients; Subject 6): 600 mg bid
- longest duration episode of AFib (patients; Subject 6, 200 mg bid): 6 h
- longest duration episode of AFib (patients; Subject 6, 400 mg bid): 10 h
- longest duration episode of AFib (patients; Subject 6, 600 mg bid): 0 h
- longest duration episode of AFib (patients; Subject 6, 800 mg bid): 3 h
- dose sufficient to eliminate all episodes of long duration AFib (>5 hrs) (patients; Subjects 4 and 5): 200 mg twice a day
- longest duration episode of AFib, Total (patients; 200 mg bid): 21 h
- longest duration episode of AFib, Total (patients; 400 mg bid): 33 h
- longest duration episode of AFib, Total (patients; 600 mg bid): 7.8 h
- longest duration episode of AFib, Total (patients; 800 mg bid): 13.6 h
